According to PubChem BioAssay (NCI):
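48-hour exposure; five concentrations; linearly interpolated endpoints. GI50 marks 50% less growth. TGI marks complete inhibition of growth.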

Legend:
Test in all cases: growth of human tumour cells (NCI), 48 h
[1] = tested on: A498 renal
[2] = tested on: ACHN renal
[3] = tested on: BT-549 breast
[4] = tested on: CCRF-CEM leukemia
[5] = tested on: COLO 205 colon
[6] = tested on: DU-145 prostate
[7] = tested on: EKVX NSCLC
[8] = tested on: HCC-2998 colon
[9] = tested on: HCT-15 colon
[10] = tested on: HL-60(TB) leukemia
[11] = tested on: HT29 colon
[12] = tested on: IGROV1 ovarian
[13] = tested on: K-562 leukemia
[14] = tested on: KM12 colon
[15] = tested on: LOX IMVI melanoma
[16] = tested on: M14 melanoma
[17] = tested on: MDA-MB-435
[18] = tested on: NCI-H522 lung
[19] = tested on: NCI/ADR-RES ovarian
[20] = tested on: OVCAR-3 ovarian
[21] = tested on: OVCAR-4 ovarian
[22] = tested on: OVCAR-5 ovarian
[23] = tested on: OVCAR-8 ovarian
[24] = tested on: RXF 393 renal
[25] = tested on: SF-268 CNS
[26] = tested on: SF-295 CNS
[27] = tested on: SK-MEL-2 melanoma
[28] = tested on: SK-MEL-28 melanoma
[29] = tested on: SK-MEL-5 melanoma
[30] = tested on: SN12C renal
[31] = tested on: SNB-19 CNS
[32] = tested on: SW-620 colon
[33] = tested on: T-47D breast
[34] = tested on: TK-10 renal
[35] = tested on: UACC-257 melanoma
[36] = tested on: UO-31 renal
[37] = tested on: 786-0 renal
[38] = tested on: A549 NSCLC
[39] = tested on: CAKI-1 renal
[40] = tested on: HCT-116 colon
[41] = tested on: HOP-62 NSCLC
[42] = tested on: HOP-92 NSCLC
[43] = tested on: HS 578T breast
[44] = tested on: MALME-3M melanoma
[45] = tested on: MCF7 breast
[46] = tested on: MDA-MB-231 breast
[47] = tested on: MOLT-4 leukemia
[48] = tested on: NCI-H226 lung
[49] = tested on: NCI-H460 lung
[50] = tested on: PC-3 prostate
[51] = tested on: RPMI-8226 leukemia
[52] = tested on: SF-539 CNS
[53] = tested on: SK-OV-3 ovarian
[54] = tested on: SNB-75 CNS
[55] = tested on: SR leukemia
[56] = tested on: U251 CNS
[57] = tested on: UACC-62 melanoma

With `COc1ccc2[nH]cc(-c3cc(N)n4nc(-c5c[nH]c6ccc(OC)cc56)cc4n3)c2c1` the GI50 [1] was 1.92 µM, the TGI [1] was 3.86 µM and the GI50 [2] was 1.85 µM. The TGI [2] was 3.45 µM, the GI50 [3] was 5.54 µM and the TGI [3] was 21.2 µM. For the same molecule, the GI50 [4] was 2.81 µM, the TGI [4] was 8.78 µM and the GI50 [5] was 1.65 µM. It also gave a TGI [5] of 3.13 µM, a GI50 [6] of 1.93 µM and a TGI [6] of 3.58 µM. It also gave a GI50 [7] of 1.73 µM, a TGI [7] of 3.58 µM and a GI50 [8] of 1.97 µM. It also gave a TGI [8] of 3.59 µM, a GI50 [9] of 1.99 µM and a TGI [9] of 4.98 µM. For the same molecule, the GI50 [10] was 1.92 µM, the TGI [10] was 4.73 µM and the GI50 [11] was 1.79 µM. For the same molecule, the TGI [11] was 3.34 µM, the GI50 [12] was 2.26 µM and the TGI [12] was 5.73 µM. For the same molecule, the GI50 [13] was 2.4 µM, the TGI [13] was greater than 100 µM and the GI50 [14] was 1.88 µM. It also gave a TGI [14] of 3.59 µM, a GI50 [15] of 2.23 µM and a TGI [15] of 3.85 µM. It also gave a GI50 [16] of 1.81 µM, a TGI [16] of 3.38 µM and a GI50 [17] of 1.74 µM. For the same molecule, the TGI [17] was 3.26 µM, the GI50 [18] was 1.72 µM and the TGI [18] was 3.32 µM. For the same molecule, the GI50 [19] was 3.09 µM, the TGI [19] was 14.3 µM and the GI50 [20] was 1.95 µM. For the same molecule, the TGI [20] was 3.83 µM, the GI50 [21] was 2.28 µM and the TGI [21] was 5.32 µM. For the same molecule, the GI50 [22] was 2.44 µM, the TGI [22] was 6.31 µM and the GI50 [23] was 1.84 µM. The TGI [23] was 3.72 µM, the GI50 [24] was 1.67 µM and the TGI [24] was 3.23 µM. The GI50 [25] was 2.13 µM, the TGI [25] was 4.77 µM and the GI50 [26] was 1.87 µM. The TGI [26] was 3.49 µM, the GI50 [27] was 1.79 µM and the TGI [27] was 3.5 µM. The GI50 [28] was 1.82 µM, the TGI [28] was 3.31 µM and the GI50 [29] was 1.7 µM. It also gave a TGI [29] of 3.08 µM, a GI50 [30] of 1.98 µM and a TGI [30] of 3.91 µM. For the same molecule, the GI50 [31] was 3.25 µM, the TGI [31] was 14.2 µM and the GI50 [32] was 1.68 µM. For the same molecule, the TGI [32] was 3.26 µM, the GI50 [33] was 1.91 µM and the TGI [33] was 4.13 µM. For the same molecule, the GI50 [34] was 2.27 µM, the TGI [34] was 5.23 µM and the GI50 [35] was 1.73 µM. For the same molecule, the TGI [35] was 3.17 µM, the GI50 [36] was 1.65 µM and the TGI [36] was 3.55 µM.

`Cc1ccc2c(n1)C(=O)C(Cl)=C(Nc1ccc(C(=O)OC(C)(C)C)cc1)C2=O` gave a GI50 [37] greater than 92.5 µM, a TGI [37] greater than 92.5 µM and a GI50 [1] greater than 92.5 µM. For the same molecule, the TGI [1] was greater than 92.5 µM, the GI50 [38] was greater than 92.5 µM and the TGI [38] was greater than 92.5 µM. For the same molecule, the GI50 [2] was 15.8 µM, the TGI [2] was 28.6 µM and the GI50 [3] was greater than 92.5 µM. The TGI [3] was greater than 92.5 µM, the GI50 [39] was 14.4 µM and the TGI [39] was 30.6 µM. For the same molecule, the GI50 [4] was 5.9 µM, the TGI [4] was greater than 92.5 µM and the GI50 [5] was 21.9 µM. For the same molecule, the TGI [5] was 63 µM, the GI50 [6] was greater than 92.5 µM and the TGI [6] was greater than 92.5 µM. For the same molecule, the GI50 [7] was greater than 92.5 µM, the TGI [7] was greater than 92.5 µM and the GI50 [8] was greater than 92.5 µM. It also gave a TGI [8] greater than 92.5 µM, a GI50 [40] of 15.5 µM and a TGI [40] of 32 µM. The GI50 [9] was 15.4 µM, the TGI [9] was 33.9 µM and the GI50 [10] was 7.65 µM. For the same molecule, the TGI [10] was 71.1 µM, the GI50 [41] was greater than 92.5 µM and the TGI [41] was greater than 92.5 µM. The GI50 [42] was 16.4 µM, the TGI [42] was 36.7 µM and the GI50 [43] was greater than 92.5 µM. The TGI [43] was greater than 92.5 µM, the GI50 [11] was greater than 92.5 µM and the TGI [11] was greater than 92.5 µM. The GI50 [12] was 71.4 µM, the TGI [12] was greater than 92.5 µM and the GI50 [13] was 3.77 µM. It also gave a TGI [13] greater than 92.5 µM, a GI50 [14] greater than 92.5 µM and a TGI [14] greater than 92.5 µM. The GI50 [15] was 16.9 µM, the TGI [15] was 33 µM and the GI50 [16] was 29.2 µM. For the same molecule, the TGI [16] was greater than 92.5 µM, the GI50 [44] was 15.7 µM and the TGI [44] was 30.5 µM. For the same molecule, the GI50 [45] was 16 µM, the TGI [45] was 35.3 µM and the GI50 [46] was 30.2 µM. The TGI [46] was greater than 92.5 µM, the GI50 [17] was 90.3 µM and the TGI [17] was greater than 92.5 µM. For the same molecule, the GI50 [47] was 4.65 µM, the TGI [47] was 72.8 µM and the GI50 [48] was greater than 92.5 µM. It also gave a TGI [48] greater than 92.5 µM, a GI50 [49] greater than 92.5 µM and a TGI [49] greater than 92.5 µM. For the same molecule, the GI50 [18] was 16.3 µM, the TGI [18] was 35.7 µM and the GI50 [19] was greater than 92.5 µM. The TGI [19] was greater than 92.5 µM, the GI50 [20] was 13.8 µM and the TGI [20] was 30.4 µM. The GI50 [21] was 12.7 µM, the TGI [21] was 29.2 µM and the GI50 [22] was greater than 92.5 µM. It also gave a TGI [22] greater than 92.5 µM, a GI50 [23] greater than 92.5 µM and a TGI [23] greater than 92.5 µM. It also gave a GI50 [50] greater than 92.5 µM, a TGI [50] greater than 92.5 µM and a GI50 [51] of 23.3 µM. For the same molecule, the TGI [51] was greater than 92.5 µM, the GI50 [24] was 12.8 µM and the TGI [24] was 25.5 µM. The GI50 [25] was greater than 92.5 µM, the TGI [25] was greater than 92.5 µM and the GI50 [26] was greater than 92.5 µM. For the same molecule, the TGI [26] was greater than 92.5 µM, the GI50 [52] was greater than 92.5 µM and the TGI [52] was greater than 92.5 µM. For the same molecule, the GI50 [27] was greater than 92.5 µM, the TGI [27] was greater than 92.5 µM and the GI50 [28] was 18.2 µM. It also gave a TGI [28] of 38.5 µM, a GI50 [29] greater than 92.5 µM and a TGI [29] greater than 92.5 µM. It also gave a GI50 [53] greater than 92.5 µM, a TGI [53] greater than 92.5 µM and a GI50 [30] greater than 92.5 µM. It also gave a TGI [30] greater than 92.5 µM, a GI50 [31] greater than 92.5 µM and a TGI [31] greater than 92.5 µM. For the same molecule, the GI50 [54] was greater than 92.5 µM, the TGI [54] was greater than 92.5 µM and the GI50 [55] was 3.44 µM. It also gave a TGI [55] of 55.7 µM, a GI50 [32] of 18.5 µM and a TGI [32] of 44 µM. For the same molecule, the GI50 [33] was 16.6 µM, the TGI [33] was 55.4 µM and the GI50 [34] was greater than 92.5 µM. For the same molecule, the TGI [34] was greater than 92.5 µM, the GI50 [56] was greater than 92.5 µM and the TGI [56] was greater than 92.5 µM. It also gave a GI50 [35] of 31.7 µM, a TGI [35] greater than 92.5 µM and a GI50 [57] greater than 92.5 µM. For the same molecule, the TGI [57] was greater than 92.5 µM, the GI50 [36] was 18.9 µM and the TGI [36] was 53.1 µM.
